Activity calls are given as the source filed them. The rule behind the calls is not given here.
System: rodent lifetime carcinogenesis bioassay, tumor incidence TD50
Assay: carcinogenic potency in animals, long-term in vivo studies, CPDB compilation (AID 1745844)
[1] = mouse, strain B6C3F1, females, in feed, site: any site (literature study), lesion: several types, types named in the paper, dosed 103 weeks, study length 104 weeks
[2] = mouse, strain B6C3F1, males, in feed, site: any site (literature study), lesion: several types, types named in the paper, dosed 103 weeks, study length 104 weeks
[3] = rat, strain Fischer 344, females, in feed, site: liver, lesion: hepatocellular adenoma + hepatocellular carcinoma + neoplastic nodule, dosed 103 weeks, study length 104 weeks
[4] = rat, strain Fischer 344, males, in feed, site: any site (literature study), lesion: several types, types named in the paper, dosed 103 weeks, study length 104 weeks

CC(O)CNCC(C)O (centres undefined)
carcinogen call (rat, strain Wistar, males, in feed, site: liver, lesion: hepatocellular carcinoma, dosed 94 weeks, study length 94 weeks): negative (inactive)
carcinogen call (rat, strain Wistar, males, in feed, site: lung, lesion: one or several types, types not named, dosed 94 weeks, study length 94 weeks): negative (inactive)
carcinogen call (rat, strain Wistar, males, in feed, site: nasal cavity, lesion: one or several types, types not named, dosed 94 weeks, study length 94 weeks): negative (inactive)

NC(=O)NN=Cc1ccc([N+](=O)[O-])o1
TD50 [1]: 66.2 mg/kg/day
TD50 (mouse, strain B6C3F1, females, in feed, site: lung, lesion: alveolar/bronchiolar adenoma + alveolar/bronchiolar carcinoma, dosed 103 weeks, study length 104 weeks): 241 mg/kg/day
TD50 (mouse, strain B6C3F1, females, in feed, site: ovary, lesion: granulosa-cell tumor + mixed tumor, benign, dosed 103 weeks, study length 104 weeks): 22.4 mg/kg/day
TD50 (mouse, strain B6C3F1, females, in feed, site: ovary, lesion: granulosa-cell tumor, dosed 103 weeks, study length 104 weeks): 124 mg/kg/day
TD50 (mouse, strain B6C3F1, females, in feed, site: ovary, lesion: mixed tumor, benign + tubular adenoma, dosed 103 weeks, study length 104 weeks): 29.8 mg/kg/day
TD50 (mouse, strain B6C3F1, females, in feed, site: ovary, lesion: mixed tumor, benign, dosed 103 weeks, study length 104 weeks): 30.8 mg/kg/day
TD50 [2]: 89.3 mg/kg/day
TD50 (mouse, strain B6C3F1, males, in feed, site: liver, lesion: hepatocellular adenoma + hepatocellular carcinoma + neoplastic nodule, dosed 103 weeks, study length 104 weeks): 152 mg/kg/day
TD50 (mouse, strain B6C3F1, males, in feed, site: lung, lesion: alveolar/bronchiolar adenoma + alveolar/bronchiolar carcinoma, dosed 103 weeks, study length 104 weeks): 1380 mg/kg/day
TD50 (mouse, strain B6C3F1, males, in feed, site: subcutaneous tissue, lesion: fibrosarcoma + fibroma + neurofibrosarcoma + sarcoma, NOS, dosed 103 weeks, study length 104 weeks): 154 mg/kg/day (inactive)
TD50 [3]: 253 mg/kg/day
TD50 (rat, strain Fischer 344, females, in feed, site: mammary gland, lesion: fibroadenoma, dosed 103 weeks, study length 104 weeks): 15.7 mg/kg/day
TD50 [4]: 33.8 mg/kg/day
TD50 (rat, strain Fischer 344, males, in feed, site: preputial gland, lesion: carcinoma, NOS, dosed 103 weeks, study length 104 weeks): 65.5 mg/kg/day
TD50 (rat, strain Fischer 344, males, in feed, site: skin, lesion: sebaceous adenoma + trichoepithelioma, dosed 103 weeks, study length 104 weeks): 151 mg/kg/day
TD50 (rat, strain Fischer 344, males, in feed, site: skin, lesion: sebaceous adenoma, dosed 103 weeks, study length 104 weeks): 177 mg/kg/day
TD50 (rat, strain Fischer 344, males, in feed, site: tunica vaginalis, lesion: mesothelioma, NOS + mesothelioma, malignant, dosed 103 weeks, study length 104 weeks): 44 mg/kg/day
TD50 (rat, strain Holtzman albino (Sprague-Dawley derived), females, in feed, site: mammary gland, lesion: fibroadenoma, dosed 36 weeks, study length 54 weeks): 6.52 mg/kg/day
carcinogen call (rat, strain Holtzman albino (Sprague-Dawley derived), females, in feed, site: mammary tissue, wider than the gland, lesion: one or several types, types not named, dosed 44 weeks, study length 60 weeks): positive
TD50 (rat, strain Sprague-Dawley, females, in feed, site: mammary tissue, wider than the gland, lesion: one or several types, types not named, dosed 46 weeks, study length 66 weeks): 7.12 mg/kg/day

CC[C@H]1OC(=O)[C@H](C)[C@@H](O[C@H]2C[C@@](C)(OC)[C@@H](O)[C@H](C)O2)[C@H](C)[C@@H](O[C@@H]2O[C@H](C)C[C@H](N(C)C)[C@H]2O)[C@](C)(O)C[C@@H](C)C(=O)[C@H](C)[C@@H](O)[C@]1(C)O
carcinogen call [1]: negative (inactive)
carcinogen call [2]: negative (inactive)
carcinogen call (rat, strain Fischer 344, females, in feed, site: any site (literature study), lesion: several types, types named in the paper, dosed 103 weeks, study length 104 weeks): negative (inactive)
TD50 [3]: 5850 mg/kg/day
TD50 [4]: 2020 mg/kg/day (inactive)
TD50 (rat, strain Fischer 344, males, in feed, site: liver, lesion: hepatocellular adenoma + hepatocellular carcinoma + neoplastic nodule, dosed 103 weeks, study length 104 weeks): 3950 mg/kg/day

Cc1c(-c2cnccn2)ssc1=S
carcinogen call (rat, strain Charles River CD (Sprague-Dawley), females, by gavage, site: liver, lesion: one or several types, types not named, dosed 52 weeks, study length 52 weeks): negative (inactive)
carcinogen call (rat, strain Charles River CD (Sprague-Dawley), males, by gavage, site: liver, lesion: one or several types, types not named, dosed 52 weeks, study length 52 weeks): negative (inactive)

O=C1NCCN1/N=C/c1ccc([N+](=O)[O-])o1
TD50 (rat, strain Sprague-Dawley, females, in feed, site: all sites, lesion: lymphoblastic lymphoma, dosed 46 weeks, study length 66 weeks): 82 mg/kg/day
TD50 (rat, strain Sprague-Dawley, females, in feed, site: mammary gland, lesion: adenocarcinoma, dosed 46 weeks, study length 66 weeks): 5.26 mg/kg/day

Nc1nc(-c2ccc([N+](=O)[O-])o2)cs1
TD50 (mouse, strain Swiss, females, in feed, site: any site (literature study), lesion: several types, types named in the paper, dosed 46 weeks, study length 55 weeks): 6.83 mg/kg/day
TD50 (mouse, strain Swiss, females, in feed, site: forestomach, lesion: several types, types named in the paper, dosed 46 weeks, study length 55 weeks): 7.87 mg/kg/day
TD50 (mouse, strain Swiss, females, in feed, site: forestomach, lesion: squamous-cell papilloma, dosed 46 weeks, study length 55 weeks): 11.5 mg/kg/day
TD50 (rat, strain Fischer, females, in feed, site: forestomach, lesion: several types, types named in the paper, dosed 52 weeks, study length 68 weeks): 5.85 mg/kg/day
TD50 (rat, strain Fischer, females, in feed, site: forestomach, lesion: squamous-cell papilloma, dosed 52 weeks, study length 68 weeks): 8.94 mg/kg/day
TD50 (rat, strain Fischer, females, in feed, site: urinary bladder, lesion: several types, types named in the paper, dosed 52 weeks, study length 68 weeks): 30.3 mg/kg/day

Source: PubChem BioAssay AID1745844 (Carcinogenic Potency Database (CPDB), 2022)
